Where “and” joins values, the source holds several entries; their conditions need not be identical. Equal entries are not always repeated. Numbers after ± are expanded uncertainties.
Details: Liquid; for mass density: 101.33 kPa, Pycnometric method; for speed of sound: Pulse-echo method

## CC(C)CCCCCCCOC(=O)c1ccccc1C(=O)OCCCCCCCC(C)C
273.84 K
  mass density: 980.22 ± 0.39 kg/m3
274.06 K
  mass density: 980.07 ± 0.39 kg/m3
274.07 K
  mass density: 980.08 ± 0.39 kg/m3
274.35 K
  mass density: 979.86 ± 0.39 kg/m3
282.95 K
  mass density: 973.75 ± 0.38 kg/m3
293.06 K, 1185 kPa
  speed of sound: 1436.6 ± 3 m/s
298.08 K, 1100 kPa
  speed of sound: 1419.9 ± 3 m/s
298.08 K, 5400 kPa
  speed of sound: 1439 ± 3 m/s
298.08 K, 10180 kPa
  speed of sound: 1459.7 ± 3 m/s
298.08 K, 16980 kPa
  speed of sound: 1488 ± 3.1 m/s
298.08 K, 25560 kPa
  speed of sound: 1522 ± 3.2 m/s
298.08 K, 32760 kPa
  speed of sound: 1549.3 ± 3.2 m/s
298.08 K, 40150 kPa
  speed of sound: 1576.5 ± 3.3 m/s
298.08 K, 47800 kPa
  speed of sound: 1602.9 ± 3.3 m/s
298.08 K, 55510 kPa
  speed of sound: 1629.7 ± 3.4 m/s
298.08 K, 62350 kPa
  speed of sound: 1652.4 ± 3.4 m/s
298.25 K
  mass density: 962.88 ± 0.36 kg/m3
298.28 K
  mass density: 962.83 ± 0.37 kg/m3
305.26 K
  mass density: 957.83 ± 0.37 kg/m3
313.18 K, 1050 kPa
  speed of sound: 1367.8 ± 2.9 m/s
313.18 K, 1110 kPa
  speed of sound: 1367.9 ± 2.9 m/s
313.18 K, 15410 kPa
  speed of sound: 1432.5 ± 3 m/s
313.18 K, 29860 kPa
  speed of sound: 1491.8 ± 3.1 m/s
313.18 K, 44860 kPa
  speed of sound: 1548.5 ± 3.2 m/s
313.18 K, 60370 kPa
  speed of sound: 1602.9 ± 3.3 m/s
313.18 K, 75510 kPa
  speed of sound: 1652.4 ± 3.4 m/s
313.18 K, 89970 kPa
  speed of sound: 1697 ± 3.5 m/s
313.18 K, 105660 kPa
  speed of sound: 1742.8 ± 3.6 m/s
313.18 K, 119950 kPa
  speed of sound: 1782.4 ± 3.7 m/s
313.27 K
  mass density: 952.21 ± 0.38 kg/m3 and 952.15 ± 0.38 kg/m3
333.24 K, 1100 kPa
  speed of sound: 1304.1 ± 2.7 m/s
333.24 K, 1130 kPa
  speed of sound: 1304.1 ± 2.7 m/s
333.24 K, 14910 kPa
  speed of sound: 1370.1 ± 2.9 m/s
333.24 K, 29760 kPa
  speed of sound: 1434.3 ± 3 m/s
333.24 K, 45000 kPa
  speed of sound: 1494.4 ± 3.1 m/s
333.24 K, 60580 kPa
  speed of sound: 1551.1 ± 3.2 m/s
333.24 K, 75550 kPa
  speed of sound: 1601.7 ± 3.3 m/s
333.24 K, 90480 kPa
  speed of sound: 1649.2 ± 3.4 m/s
333.24 K, 105430 kPa
  speed of sound: 1694 ± 3.5 m/s
333.24 K, 120280 kPa
  speed of sound: 1736.3 ± 3.6 m/s
333.24 K, 139660 kPa
  speed of sound: 1788.5 ± 3.7 m/s
333.28 K
  mass density: 937.93 ± 0.4 kg/m3
353.18 K, 1010 kPa
  speed of sound: 1241.9 ± 2.6 m/s
353.18 K, 1280 kPa
  speed of sound: 1243.1 ± 2.7 m/s
353.18 K, 10060 kPa
  speed of sound: 1288.5 ± 2.7 m/s
353.18 K, 19830 kPa
  speed of sound: 1335.3 ± 2.8 m/s
353.18 K, 29890 kPa
  speed of sound: 1380.3 ± 2.9 m/s
353.18 K, 40170 kPa
  speed of sound: 1423.1 ± 3 m/s
353.18 K, 50230 kPa
  speed of sound: 1462.7 ± 3 m/s
353.18 K, 60350 kPa
  speed of sound: 1500.4 ± 3.1 m/s
353.18 K, 70310 kPa
  speed of sound: 1535.6 ± 3.2 m/s
353.18 K, 80170 kPa
  speed of sound: 1569 ± 3.2 m/s
353.18 K, 90020 kPa
  speed of sound: 1601 ± 3.3 m/s
353.18 K, 104640 kPa
  speed of sound: 1646 ± 3.4 m/s
353.18 K, 122120 kPa
  speed of sound: 1697.1 ± 3.5 m/s
353.18 K, 139450 kPa
  speed of sound: 1745 ± 3.6 m/s
353.29 K
  mass density: 923.76 ± 0.43 kg/m3
373.1 K, 460 kPa
  speed of sound: 1179.1 ± 2.5 m/s
373.1 K, 1150 kPa
  speed of sound: 1183.1 ± 2.5 m/s
373.1 K, 1350 kPa
  speed of sound: 1184.4 ± 2.5 m/s
373.1 K, 10370 kPa
  speed of sound: 1233.7 ± 2.6 m/s
373.1 K, 20030 kPa
  speed of sound: 1282.4 ± 2.7 m/s
373.1 K, 29930 kPa
  speed of sound: 1328.6 ± 2.8 m/s
373.1 K, 40300 kPa
  speed of sound: 1373.8 ± 2.9 m/s
373.1 K, 50050 kPa
  speed of sound: 1413.5 ± 2.9 m/s
373.1 K, 60040 kPa
  speed of sound: 1452 ± 3 m/s
373.1 K, 70060 kPa
  speed of sound: 1488.7 ± 3.1 m/s
373.1 K, 80050 kPa
  speed of sound: 1523.7 ± 3.2 m/s
373.1 K, 90060 kPa
  speed of sound: 1557.2 ± 3.2 m/s
373.1 K, 100440 kPa
  speed of sound: 1590.2 ± 3.3 m/s
373.1 K, 110260 kPa
  speed of sound: 1620.7 ± 3.3 m/s
373.1 K, 120180 kPa
  speed of sound: 1649.7 ± 3.4 m/s
373.1 K, 130570 kPa
  speed of sound: 1679.6 ± 3.5 m/s
373.1 K, 140300 kPa
  speed of sound: 1707 ± 3.5 m/s
373.29 K
  mass density: 909.62 ± 0.46 kg/m3
393.31 K
  mass density: 895.47 ± 0.48 kg/m3
393.54 K, 1240 kPa
  speed of sound: 1125.2 ± 2.4 m/s
393.54 K, 1280 kPa
  speed of sound: 1125.4 ± 2.4 m/s
393.54 K, 14940 kPa
  speed of sound: 1203.3 ± 2.5 m/s
393.54 K, 29730 kPa
  speed of sound: 1277.1 ± 2.7 m/s
393.54 K, 44510 kPa
  speed of sound: 1343.3 ± 2.8 m/s
393.54 K, 59690 kPa
  speed of sound: 1404.8 ± 2.9 m/s
393.54 K, 75010 kPa
  speed of sound: 1462 ± 3 m/s
393.54 K, 104930 kPa
  speed of sound: 1563 ± 3.2 m/s
393.54 K, 122450 kPa
  speed of sound: 1616.7 ± 3.3 m/s
393.54 K, 139770 kPa
  speed of sound: 1666.6 ± 3.4 m/s
413.33 K
  mass density: 881.29 ± 0.51 kg/m3
413.41 K, 1110 kPa
  speed of sound: 1069.6 ± 2.3 m/s
413.41 K, 1130 kPa
  speed of sound: 1069.8 ± 2.3 m/s
413.41 K, 14800 kPa
  speed of sound: 1152.3 ± 2.5 m/s
413.41 K, 29640 kPa
  speed of sound: 1229.8 ± 2.6 m/s
413.41 K, 45070 kPa
  speed of sound: 1301.7 ± 2.7 m/s
413.41 K, 60270 kPa
  speed of sound: 1365.4 ± 2.8 m/s
413.41 K, 75540 kPa
  speed of sound: 1423.9 ± 3 m/s
413.41 K, 90150 kPa
  speed of sound: 1476 ± 3.1 m/s
413.41 K, 105150 kPa
  speed of sound: 1526 ± 3.2 m/s
413.41 K, 119720 kPa
  speed of sound: 1571.9 ± 3.2 m/s
413.41 K, 139510 kPa
  speed of sound: 1630.3 ± 3.4 m/s

— the NIST ThermoML archive (doi:10.1016/j.jct.2009.12.002)
